This note sets out measurements from ChEMBL document CHEMBL1131969, “Quinoline-2,4-dicarboxylic acids: synthesis and evaluation as inhibitors of the glutamate vesicular transport system” (Bioorg Med Chem Lett, 1999).

Data set [1] is described as follows: Compound was evaluated for the kinetic parameter (Km). It is filed as ADME.
Data set [2] in a line: Compound was evaluated for the kinetic parameter Vmax (maximum velocity). In kind it is ADME.

Turning to `N[C@@H](CCC(=O)O)C(=O)O` [GLUTAMIC ACID], the Michaelis-Menten constant (Km) in data set [1] is 1.65 µM. Moreover, in data set [2], the Vmax was 18.3 pM/min/mg.
